Measured values: ChEMBL document CHEMBL5696441 (Nat Chem Biol, 2011)

Columns and labels:
[1] = biological target: Mitogen-activated protein kinase kinase kinase 4 (Homo sapiens) (UniProt Q9Y6R4); assay: Inhibition of MAP3K4 (unknown origin) assessed as remaining activity at 1 uM by Kinome scan method relative to control
[2] = biological target: cAMP-dependent protein kinase catalytic subunit beta (Homo sapiens) (UniProt P22694); assay: Inhibition of PKAC-beta (unknown origin) assessed as remaining activity at 1 uM by Kinome scan method relative to control
[3] = biological target: MAP/microtubule affinity-regulating kinase 3 (Homo sapiens) (UniProt P27448); assay: Inhibition of MARK3 (unknown origin) assessed as remaining activity at 1 uM by Kinome scan method relative to control
Sequence of MAP/microtubule affinity-regulating kinase 3 (Homo sapiens) (P27448 whole entry, looked up): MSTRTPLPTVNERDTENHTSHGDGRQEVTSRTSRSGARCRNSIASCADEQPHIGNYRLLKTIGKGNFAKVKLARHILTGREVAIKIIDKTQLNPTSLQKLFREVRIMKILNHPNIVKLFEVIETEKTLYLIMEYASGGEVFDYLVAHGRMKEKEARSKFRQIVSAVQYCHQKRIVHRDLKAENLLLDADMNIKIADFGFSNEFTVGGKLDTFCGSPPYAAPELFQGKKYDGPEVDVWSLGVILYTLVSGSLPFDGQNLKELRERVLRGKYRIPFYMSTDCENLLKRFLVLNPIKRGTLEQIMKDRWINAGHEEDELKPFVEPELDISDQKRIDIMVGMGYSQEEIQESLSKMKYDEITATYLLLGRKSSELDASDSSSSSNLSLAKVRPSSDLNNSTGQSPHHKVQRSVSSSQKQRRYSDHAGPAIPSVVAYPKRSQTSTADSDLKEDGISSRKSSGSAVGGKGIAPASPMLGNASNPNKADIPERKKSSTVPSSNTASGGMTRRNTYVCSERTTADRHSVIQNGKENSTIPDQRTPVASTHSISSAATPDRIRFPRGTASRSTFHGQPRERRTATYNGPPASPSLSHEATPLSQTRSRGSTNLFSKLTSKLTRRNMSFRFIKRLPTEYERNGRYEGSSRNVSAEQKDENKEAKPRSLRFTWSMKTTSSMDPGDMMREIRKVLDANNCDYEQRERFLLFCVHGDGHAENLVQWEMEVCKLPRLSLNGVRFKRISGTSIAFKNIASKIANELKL

[4] = biological target: MAP kinase-activated protein kinase 2 (Homo sapiens) (UniProt P49137); assay: Inhibition of MAPKAPK2 (unknown origin) assessed as remaining activity at 1 uM by Kinome scan method relative to control
Sequence of MAP kinase-activated protein kinase 2 (Homo sapiens) (P49137 whole entry, looked up): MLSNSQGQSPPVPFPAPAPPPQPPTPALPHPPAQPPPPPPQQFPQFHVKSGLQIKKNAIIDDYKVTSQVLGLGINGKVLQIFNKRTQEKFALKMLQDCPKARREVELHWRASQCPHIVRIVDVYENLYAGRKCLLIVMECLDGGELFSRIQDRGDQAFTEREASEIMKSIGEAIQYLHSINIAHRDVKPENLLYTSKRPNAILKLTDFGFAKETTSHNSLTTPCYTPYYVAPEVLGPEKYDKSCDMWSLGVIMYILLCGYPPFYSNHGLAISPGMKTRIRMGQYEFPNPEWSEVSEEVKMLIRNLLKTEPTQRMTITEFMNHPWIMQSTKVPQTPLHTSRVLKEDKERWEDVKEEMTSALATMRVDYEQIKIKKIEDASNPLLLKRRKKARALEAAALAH

[5] = biological target: Myosin light chain kinase family member 4 (Homo sapiens) (UniProt Q86YV6); assay: Inhibition of SgK085 (unknown origin) assessed as remaining activity at 1 uM by Kinome scan method relative to control
Sequence of Myosin light chain kinase family member 4 (Homo sapiens) (Q86YV6 whole entry): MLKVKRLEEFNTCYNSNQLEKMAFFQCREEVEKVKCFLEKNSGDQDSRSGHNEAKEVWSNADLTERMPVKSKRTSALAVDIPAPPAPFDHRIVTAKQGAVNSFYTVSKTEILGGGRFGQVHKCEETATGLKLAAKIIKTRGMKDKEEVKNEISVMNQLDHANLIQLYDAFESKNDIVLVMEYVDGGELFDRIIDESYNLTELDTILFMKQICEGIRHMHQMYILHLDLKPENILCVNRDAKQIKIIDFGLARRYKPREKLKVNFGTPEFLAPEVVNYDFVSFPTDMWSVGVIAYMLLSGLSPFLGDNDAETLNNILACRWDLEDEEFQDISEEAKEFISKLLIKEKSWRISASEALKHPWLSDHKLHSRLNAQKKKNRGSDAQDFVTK

[6] = biological target: Serine/threonine-protein kinase/endoribonuclease IRE1 (Homo sapiens) (UniProt O75460); assay: Inhibition of ERN1 (unknown origin) assessed as remaining activity at 1 uM by Kinome scan method relative to control
[7] = biological target: T1, Mitogen-activated protein kinase 12 (Homo sapiens) (UniProt P53778); assay: Inhibition of P38gamma (unknown origin) assessed as remaining activity at 1 uM by Kinome scan method relative to control
T1 sequence (whole entry): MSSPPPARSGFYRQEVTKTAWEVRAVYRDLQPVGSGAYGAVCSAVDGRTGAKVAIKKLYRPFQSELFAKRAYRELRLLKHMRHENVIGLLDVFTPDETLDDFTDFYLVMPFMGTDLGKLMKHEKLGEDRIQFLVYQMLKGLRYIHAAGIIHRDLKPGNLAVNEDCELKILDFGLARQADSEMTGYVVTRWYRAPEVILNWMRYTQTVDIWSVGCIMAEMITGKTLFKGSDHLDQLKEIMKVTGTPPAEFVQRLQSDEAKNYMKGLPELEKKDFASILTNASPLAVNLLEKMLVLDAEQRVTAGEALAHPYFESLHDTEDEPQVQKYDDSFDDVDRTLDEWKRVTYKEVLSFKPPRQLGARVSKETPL

[8] = biological target: Mitogen-activated protein kinase 11 (Homo sapiens) (UniProt Q15759); assay: Inhibition of P38beta (unknown origin) assessed as remaining activity at 1 uM by Kinome scan method relative to control
Sequence of Mitogen-activated protein kinase 11 (Homo sapiens) (Q15759 whole entry): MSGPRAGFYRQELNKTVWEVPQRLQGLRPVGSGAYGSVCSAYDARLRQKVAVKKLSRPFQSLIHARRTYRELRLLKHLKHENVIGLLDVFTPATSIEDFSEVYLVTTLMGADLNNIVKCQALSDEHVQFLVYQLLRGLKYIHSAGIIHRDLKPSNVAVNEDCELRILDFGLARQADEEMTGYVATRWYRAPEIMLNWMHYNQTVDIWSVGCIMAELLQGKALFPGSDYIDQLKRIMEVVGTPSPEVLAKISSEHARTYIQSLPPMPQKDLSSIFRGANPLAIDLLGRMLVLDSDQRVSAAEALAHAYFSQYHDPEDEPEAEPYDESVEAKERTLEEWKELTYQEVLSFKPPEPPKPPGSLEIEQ

[9] = biological target: Interleukin-1 receptor-associated kinase 3 (Homo sapiens) (UniProt Q9Y616); assay: Inhibition of IRAK3 (unknown origin) assessed as remaining activity at 1 uM by Kinome scan method relative to control
Sequence of Interleukin-1 receptor-associated kinase 3 (Homo sapiens) (Q9Y616 whole entry): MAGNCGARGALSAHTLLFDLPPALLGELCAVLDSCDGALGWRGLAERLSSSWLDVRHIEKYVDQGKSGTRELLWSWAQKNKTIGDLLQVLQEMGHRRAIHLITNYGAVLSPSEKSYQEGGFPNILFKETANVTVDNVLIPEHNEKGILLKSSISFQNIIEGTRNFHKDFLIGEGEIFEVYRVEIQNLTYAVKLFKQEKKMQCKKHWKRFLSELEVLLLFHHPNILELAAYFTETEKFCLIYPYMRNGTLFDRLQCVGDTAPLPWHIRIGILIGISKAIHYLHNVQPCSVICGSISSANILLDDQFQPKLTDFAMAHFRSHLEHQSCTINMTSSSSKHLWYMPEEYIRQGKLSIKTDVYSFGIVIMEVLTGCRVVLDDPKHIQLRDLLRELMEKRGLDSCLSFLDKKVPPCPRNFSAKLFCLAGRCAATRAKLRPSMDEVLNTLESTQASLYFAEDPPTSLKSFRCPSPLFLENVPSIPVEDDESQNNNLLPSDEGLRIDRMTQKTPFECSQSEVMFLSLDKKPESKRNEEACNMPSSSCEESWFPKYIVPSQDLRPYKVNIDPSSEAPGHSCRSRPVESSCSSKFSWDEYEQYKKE

[10] = biological target: T2, Muscle, skeletal receptor tyrosine-protein kinase (Homo sapiens) (UniProt O15146); assay: Inhibition of MUSK (unknown origin) assessed as remaining activity at 1 uM by Kinome scan method relative to control
T2 sequence (whole entry): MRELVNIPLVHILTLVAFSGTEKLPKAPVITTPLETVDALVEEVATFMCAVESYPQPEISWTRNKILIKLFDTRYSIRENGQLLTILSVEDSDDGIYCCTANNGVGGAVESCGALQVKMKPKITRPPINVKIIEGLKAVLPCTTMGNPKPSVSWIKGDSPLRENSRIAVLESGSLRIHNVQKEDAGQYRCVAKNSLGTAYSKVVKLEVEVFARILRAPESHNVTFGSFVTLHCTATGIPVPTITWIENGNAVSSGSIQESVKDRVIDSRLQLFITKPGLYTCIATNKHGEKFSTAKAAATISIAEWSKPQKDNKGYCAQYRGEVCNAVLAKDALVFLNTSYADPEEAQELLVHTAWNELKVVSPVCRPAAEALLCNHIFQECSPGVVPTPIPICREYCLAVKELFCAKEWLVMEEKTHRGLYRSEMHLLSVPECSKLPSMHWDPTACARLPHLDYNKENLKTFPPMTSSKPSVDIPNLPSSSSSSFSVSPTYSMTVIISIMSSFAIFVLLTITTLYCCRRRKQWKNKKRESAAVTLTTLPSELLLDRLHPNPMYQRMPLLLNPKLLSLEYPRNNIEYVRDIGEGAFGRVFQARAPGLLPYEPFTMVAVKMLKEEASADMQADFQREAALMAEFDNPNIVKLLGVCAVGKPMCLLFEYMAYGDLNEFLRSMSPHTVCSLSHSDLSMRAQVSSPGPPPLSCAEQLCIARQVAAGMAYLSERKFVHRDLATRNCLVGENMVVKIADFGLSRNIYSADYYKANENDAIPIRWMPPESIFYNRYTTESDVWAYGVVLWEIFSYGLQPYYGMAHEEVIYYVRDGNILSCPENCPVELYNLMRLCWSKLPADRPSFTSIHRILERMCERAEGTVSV

[11] = biological target: TRAF2 and NCK-interacting protein kinase (Homo sapiens) (UniProt Q9UKE5); assay: Inhibition of TNIK (unknown origin) assessed as remaining activity at 1 uM by Kinome scan method relative to control
Sequence of TRAF2 and NCK-interacting protein kinase (Homo sapiens) (Q9UKE5 whole entry, looked up, the tested form may be a part): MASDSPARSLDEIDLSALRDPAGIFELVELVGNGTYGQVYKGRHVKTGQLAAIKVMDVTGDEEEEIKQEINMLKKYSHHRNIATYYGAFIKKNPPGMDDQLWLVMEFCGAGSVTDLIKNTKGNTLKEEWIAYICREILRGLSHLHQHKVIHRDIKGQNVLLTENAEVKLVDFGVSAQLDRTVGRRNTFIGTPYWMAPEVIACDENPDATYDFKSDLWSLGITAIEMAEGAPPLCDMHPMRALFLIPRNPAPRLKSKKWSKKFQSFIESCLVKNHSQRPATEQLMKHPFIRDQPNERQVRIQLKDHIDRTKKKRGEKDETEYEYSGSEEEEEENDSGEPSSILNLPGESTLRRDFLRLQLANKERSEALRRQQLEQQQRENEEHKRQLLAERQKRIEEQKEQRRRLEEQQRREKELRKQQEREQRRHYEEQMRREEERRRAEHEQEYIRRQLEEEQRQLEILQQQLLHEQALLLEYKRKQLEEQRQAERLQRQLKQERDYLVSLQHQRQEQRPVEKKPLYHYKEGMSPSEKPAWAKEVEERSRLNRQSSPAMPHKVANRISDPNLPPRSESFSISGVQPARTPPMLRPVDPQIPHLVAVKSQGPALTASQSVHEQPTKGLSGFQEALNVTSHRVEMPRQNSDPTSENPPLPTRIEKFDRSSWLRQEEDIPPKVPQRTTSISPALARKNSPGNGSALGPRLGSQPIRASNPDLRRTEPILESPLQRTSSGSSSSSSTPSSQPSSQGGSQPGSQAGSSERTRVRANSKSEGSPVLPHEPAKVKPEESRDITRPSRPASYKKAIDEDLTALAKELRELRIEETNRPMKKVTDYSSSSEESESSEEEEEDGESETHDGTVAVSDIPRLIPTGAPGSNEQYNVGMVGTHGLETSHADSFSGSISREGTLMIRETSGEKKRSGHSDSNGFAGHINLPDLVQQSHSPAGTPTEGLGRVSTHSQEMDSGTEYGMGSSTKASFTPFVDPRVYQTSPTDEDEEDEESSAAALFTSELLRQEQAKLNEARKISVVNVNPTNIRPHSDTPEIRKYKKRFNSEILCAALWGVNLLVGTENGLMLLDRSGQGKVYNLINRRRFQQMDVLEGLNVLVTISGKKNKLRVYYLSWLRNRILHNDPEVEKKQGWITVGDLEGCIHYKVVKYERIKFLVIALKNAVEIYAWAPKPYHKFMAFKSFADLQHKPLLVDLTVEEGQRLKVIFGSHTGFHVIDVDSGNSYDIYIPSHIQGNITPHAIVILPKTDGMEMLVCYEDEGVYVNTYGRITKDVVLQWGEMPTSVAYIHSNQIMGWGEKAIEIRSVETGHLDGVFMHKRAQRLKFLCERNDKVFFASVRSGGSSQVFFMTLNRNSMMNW

[12] = biological target: Phosphatidylinositol 3-kinase C2 domain-containing subunit gamma (Homo sapiens) (UniProt O75747); assay: Inhibition of PIK3C2G (unknown origin) assessed as remaining activity at 1 uM by Kinome scan method relative to control
[13] = biological target: Activin receptor type-2A (Homo sapiens) (UniProt P27037); assay: Inhibition of ACVR2A (unknown origin) assessed as remaining activity at 1 uM by Kinome scan method relative to control
[14] = tested on: Phosphatidylinositol 4,5-bisphosphate 3-kinase catalytic subunit alpha isoform (Homo sapiens), P42336 [C420R]; assay: Inhibition of PIK3CA C420R mutant (unknown origin) assessed as remaining activity at 1 uM by Kinome scan method relative to control
Sequence of Phosphatidylinositol 4,5-bisphosphate 3-kinase catalytic subunit alpha isoform (Homo sapiens), P42336 [C420R] (P42336 whole entry C420R, canonical isoform): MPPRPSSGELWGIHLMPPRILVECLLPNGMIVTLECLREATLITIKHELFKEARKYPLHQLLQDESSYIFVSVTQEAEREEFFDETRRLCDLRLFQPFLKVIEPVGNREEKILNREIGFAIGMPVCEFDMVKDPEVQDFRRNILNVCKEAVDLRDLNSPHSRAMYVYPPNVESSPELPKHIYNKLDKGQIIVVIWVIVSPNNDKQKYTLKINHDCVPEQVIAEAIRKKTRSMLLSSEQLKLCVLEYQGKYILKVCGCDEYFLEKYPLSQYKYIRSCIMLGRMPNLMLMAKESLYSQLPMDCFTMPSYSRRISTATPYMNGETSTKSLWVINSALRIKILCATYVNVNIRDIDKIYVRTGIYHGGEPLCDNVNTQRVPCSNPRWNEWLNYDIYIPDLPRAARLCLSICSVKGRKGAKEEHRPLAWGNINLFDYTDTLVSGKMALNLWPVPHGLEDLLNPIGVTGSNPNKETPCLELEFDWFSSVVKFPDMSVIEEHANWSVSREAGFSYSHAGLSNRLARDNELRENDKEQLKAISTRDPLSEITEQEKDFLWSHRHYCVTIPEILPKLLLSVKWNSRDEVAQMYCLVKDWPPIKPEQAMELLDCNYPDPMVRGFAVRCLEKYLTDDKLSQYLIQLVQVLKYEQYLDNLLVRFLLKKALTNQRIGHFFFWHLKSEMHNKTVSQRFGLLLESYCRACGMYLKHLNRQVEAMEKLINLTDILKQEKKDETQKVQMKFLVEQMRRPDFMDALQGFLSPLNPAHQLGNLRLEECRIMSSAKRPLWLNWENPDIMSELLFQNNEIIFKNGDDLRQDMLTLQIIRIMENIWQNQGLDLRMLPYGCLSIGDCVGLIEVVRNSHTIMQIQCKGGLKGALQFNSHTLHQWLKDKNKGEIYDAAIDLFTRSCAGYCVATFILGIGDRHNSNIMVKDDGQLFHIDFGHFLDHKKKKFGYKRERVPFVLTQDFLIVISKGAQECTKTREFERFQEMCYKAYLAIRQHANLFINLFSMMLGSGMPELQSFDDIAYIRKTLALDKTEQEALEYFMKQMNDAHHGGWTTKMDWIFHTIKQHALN

Q: How did the Activity [1] turn out when Nc1ccccc1Nc1ccc2c(c1)CCc1ccccc1C2=O was run?
A: 82%

Q: And the Activity [2]?
A: 88%

Q: What about the Activity [3] of the same compound?
A: 82%

Q: And the Activity [4]?
A: 96%

Q: And the Activity [5]?
A: 97%

Q: And the Activity [6]?
A: 98%

Q: And the Activity [7]?
A: 98%

Q: What about the Activity [8] of the same compound?
A: 0.9%

Q: And the Activity [9]?
A: 90%

Q: What about the Activity [10] of the same compound?
A: 86%

Q: And the Activity [11]?
A: 90%

Q: And the Activity [12]?
A: 97%

Q: What about the Activity [13] of the same compound?
A: 96%

Q: And the Activity [14]?
A: 91%

Q: Which results are given for O=C1c2ccc(Nc3ccc(F)cc3F)cc2CCc2ccc(OC[C@H](O)CO)cc21 [Skepinone-L]?
A: Activity [1]: 85%; Activity [2]: 74%; Activity [3]: 90%; Activity [4]: 94%; Activity [5]: 100%; Activity [6]: 100%; Activity [7]: 88%; Activity [8]: 0.15%; Activity [9]: 97%; Activity [10]: 90%; Activity [11]: 93%; Activity [12]: 100%; Activity [13]: 95%; Activity [14]: 100%
